Assay results from US20260335398A1, “METHODS FOR TREATING PANCREATIC CANCER WITH A COMBINATION OF DES-METHYL PATEAMINE A AND A CLASS I HDAC INHIBITOR” (Baylor University, priority 2023, published 2026).

Assays:
Assay type in all cases: cell-based
[1] = system: PANC-1, PANC 02.13, MIA PaCa-2, Capan-1, KLM, AsPC-1 and BXPC3 cells; test: Cytotoxicity/cell viability with romidepsin, DMPatA and their combination in seven PDAC cell lines (FIG. 1A); conditions: romidepsin 15 nM for 6 h, alone or with DMPatA 2 nM
Description: FIG. 1A compares cytotoxicity graphs of the effect of romidepsin alone at increasing doses (circles), DMPatA alone at 2 nM (diamond), and combination of romidepsin with DMPatA at 2 nM (triangles) on PANC-1, PANC 02.13, MIA PaCa-2, Capan-1, KLM, AsPC-1 and BXPC3 cells. Romidepsin treatment in both the single agent and the combination was for 6 hours after which it was washed out and medium replaced with fresh medium without (single agent romidepsin) or with DMPatA for an additional 42 hours (combination).
This schedule of romidepsin treatment features a 6-hour exposure followed by washout of romidepsin and replacement with fresh media, whereas most investigators expose cells to 1-2 nM over 48-96 hours of continuous romidepsin. […] Thus a 6-hour exposure is more clinically relevant. Most cell types are susceptible to romidepsin over non-clinically relevant long treatment durations.
It was initially hypothesized that the HDAC-inhibitor romidepsin could cause synergistic cell death when combined with DMPatA via a reduction in MYC levels previously seen with both eIF4A inhibitors and with romidepsin in KRAS cells. […]
Cell viability was determined using CellTiter-Glo® reagent (Promega, #G7570) following the manufacturer's instructions. […] After incubation, assay reagent was added, and luminescent signals were quantified using a microplate reader (PHERAstar® FS, BMG LABTECH, Ortenberg, Germany). […]

MIA PaCa-2 cells = test: Cellular acetyl-CoA levels by LC-MS (FIG. 8D); conditions: MIA PaCa-2, total 18 h
Description: FIG. 8D compares cellular acetyl-CoA levels measured in MIA PaCa-2 cells using LC-MS following treatment of cells with the combination or with single agents as mentioned in FIG. 8A. At least three biological replicate experiments were carried out. Statistical significance was determined by two-way ANOVA, ****p value<0.0001, ***p value<0.0004.
Five million cells were seeded in 150 mm cell culture dishes. Cells were treated with combination or single agents for a total of 18 h (6-+12-hours). Following treatment cells were harvested on ice, washed, and scraped out under liquid nitrogen. Prior to extraction an aliquot of the cell pellet was collected and subjected to protein quantification.
For Acetyl-CoA extraction, a 100 μL aliquot of the thawed pellet was spiked with ^13C2-acetyl-CoA as an internal standard, extracted with 400 μL of methanol, vortexed, and centrifuged at […] for 5 minutes at 4 °C. The methanol supernatant (400 μL) was then dried under nitrogen at 35 °C and reconstituted in 100 μL of 10 mM ammonium bicarbonate (pH 9.5) for LC/MS analysis. Calibration curve standards were similarly prepared as the cell pellets. Acetyl-CoA quantification by LC/MS was performed on an Agilent 1290 Infinity UHPLC/6495 triple quadrupole mass spectrometer, using multiple reaction monitoring. […]

VGF and HBA2 loci = test: DRIP-qPCR R-loop accumulation at VGF and HBA2 loci (FIG. 10A); conditions: MIA PaCa-2, 6+3 hours
Description: FIG. 10A illustrates the fold increase in the percent of input values in DRIP-qPCR for the VGF, HBA2, and SNRPN loci in MIA PaCa-2 cells treated with or without the combination or single agents. Genomic DNA was treated in vitro with or without RNaseH1 before immunoprecipitation using S9.6 antibody. Treatment was for 6+3 hours (i.e., 6-hour romidepsin followed by 3-hour washout with 2 nM DMPatA (combo) or without). Statistical significance was determined by 3-way ANOVA, ***p value<0.001. This experiment confirms the formation of R-loops at the investigated gene loci.
Romidepsin-induced histone hyperacetylation leads to the accumulation of R-loops that can increase genome instability. Because treatment of cells with the combination increased global transcription and led to persistence of histone hyperacetylation, it was postulated the treatment could similarly enhance the formation of R-loops and contribute to cell death. R-loop accumulation was further confirmed using DRIP-qPCR. […]
DRIP assay was performed according to the method previously described (Sanz L A, Chédin F. High-resolution, strand-specific R-loop mapping via S9. 6-based DNA-RNA immunoprecipitation and high-throughput sequencing. Nature protocols. 2019; 14(6):1734). […] Quantitative PCR was performed at the R-loop positive loci VGF and HBA2 genes and R-loop negative locus SNRPN gene with the primers listed in Table 1.

## C/C=C1\NC(=O)[C@H]2CSSCC/C=C/[C@H](CC(=O)N[C@H](C(C)C)C(=O)N2)OC(=O)[C@H](C(C)C)NC1=O [romidepsin]
[1]
  toxicity / lethality at low concentration: minimal to no toxicity
MIA PaCa-2 cells
  cellular acetyl-CoA levels: significant reduction
VGF and HBA2 loci
  R-loop accumulation (percent of input, DRIP-qPCR): significant increase in the percent of input
